The text below walks through data of patent US6458822B2, “2-oxo-imidazolidine-4-carboxylic acid hydroxamide compounds that inhibit matrix metalloproteinases” (Pfizer Inc., priority 2000, dated 2002).

Molecules are shown by their SMILES.

As to `COc1ccc(CN2C[C@H](C(=O)NO)NC2=O)cc1` [Example 4, (4R)-1-(4-Methoxybenzyl)-2-oxo-imidazolidine-4-carboxylic Acid Hydroxyamide], the melting point – broadly, the temperature of the solid-liquid transition – was in the range of 130 to 133 °C.
